# Measured values from ChEMBL document CHEMBL1201862, “PubChem BioAssay data set” (2004).
# The source made the active and inactive calls.
# Experiments:
# [1] = biological target: T1, Polyadenylate-binding protein 1 (Homo sapiens, UniProt P11940); assay: PABP1 MLLE–PAM2 interaction inhibitors, dose response, miRNA deadenylation inhibitor project, biochemical, fluorescence polarization, Cy5-PAM2 peptide, secondary (AID 602260); type: functional; details: read-out: IC50_Mean
# [2] = biological target: T1, Polyadenylate-binding protein 1; assay: PABP1 MLLE–PAM2 binding inhibitor potency, dose response, biochemical, fluorescence polarization, FITC-PAM2 peptide (AID 602259); type: functional; details: read-out: IC50_Mean
# [3] = growth suppression of PTEN-null colon cells, dose response, cell-based, HCT116 PTEN knockout (AID 1047); type: functional;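 note: HCT116 colon tumor cells with PTEN knocked out; cells exposed to compound for 60 hours before readout; potency for loss of cell viability measured by luminescence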
# Fatty acid synthase [4] = biological target: T2, Fatty acid synthase (Homo sapiens, UniProt P49327); assay: FAS thioesterase domain inhibitors, dose response, biochemical, endpoint fluorescence intensity, uHTS hits (AID 624327); type: functional;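 note: fluorescence from hydrolysis of an O-methyl fluorescein acyl ester substrate by the enzyme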
# Fatty acid synthase [5] = biological target: T2, Fatty acid synthase; assay: FAS thioesterase domain inhibitors, dose response, biochemical, kinetic fluorescence intensity (AID 624326); type: functional;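 note: rate of fluorescence rise from hydrolysis of a fluorogenic O-methyl fluorescein ester substrate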
# [6] = A549 cell cytotoxicity, dose response, cytotoxicity control, plate reader, cherry-pick, antagonist series (AID 743412); type: functional, cell-based
# [7] = THP-1 cell cytotoxicity, dose response, cytotoxicity control for non-replicating M. tuberculosis project (AID 489025); type: functional
# cells = type: functional
# Protein skinhead-1 = biological target: T3, Protein skinhead-1 (Caenorhabditis elegans, UniProt P34707); type: functional
# T3 sequence (P34707 whole entry): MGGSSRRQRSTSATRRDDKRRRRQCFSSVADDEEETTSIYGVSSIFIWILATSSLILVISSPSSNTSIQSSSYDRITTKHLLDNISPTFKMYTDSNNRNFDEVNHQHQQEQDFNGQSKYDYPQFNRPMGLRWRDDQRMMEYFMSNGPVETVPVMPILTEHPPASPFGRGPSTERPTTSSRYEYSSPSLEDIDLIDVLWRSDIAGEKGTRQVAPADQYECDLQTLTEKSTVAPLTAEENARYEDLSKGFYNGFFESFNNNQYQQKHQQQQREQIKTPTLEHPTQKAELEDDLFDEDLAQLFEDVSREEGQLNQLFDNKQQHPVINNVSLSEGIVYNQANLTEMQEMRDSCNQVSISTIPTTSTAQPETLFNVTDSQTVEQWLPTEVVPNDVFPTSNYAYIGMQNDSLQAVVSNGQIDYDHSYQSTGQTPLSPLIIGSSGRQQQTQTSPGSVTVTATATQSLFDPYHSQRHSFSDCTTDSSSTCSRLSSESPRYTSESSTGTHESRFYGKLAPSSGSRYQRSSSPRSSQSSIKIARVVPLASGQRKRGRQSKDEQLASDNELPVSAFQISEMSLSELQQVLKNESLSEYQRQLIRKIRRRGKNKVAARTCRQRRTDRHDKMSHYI
# [8] = inhibitors of HIV Env-driven cell fusion, dose response, cherry-pick (AID 652057); type: functional, cell-based
# [9] = ZM109 Env clade C HIV-1 fusion inhibitors, dose response, HeLa effector, CEM target cells, luciferase, cherry-pick (AID 652058); type: functional, cell-based
# [10] = biological target: Induced myeloid leukemia cell differentiation protein Mcl-1 (Homo sapiens, UniProt Q07820); type: functional
# [11] = biological target: T4, Corticotropin-releasing factor receptor 2/Corticotropin-releasing factor-binding protein (Homo sapiens, UniProt P24387+Q13324); assay: Dose Response confirmation of uHTS hits for small molecule antagonists of the CRF-binding protein and CRF-R2 receptor complex.; type: functional; details: read-out: IC50_Mean
# T4 sequence (Q13324 whole entry): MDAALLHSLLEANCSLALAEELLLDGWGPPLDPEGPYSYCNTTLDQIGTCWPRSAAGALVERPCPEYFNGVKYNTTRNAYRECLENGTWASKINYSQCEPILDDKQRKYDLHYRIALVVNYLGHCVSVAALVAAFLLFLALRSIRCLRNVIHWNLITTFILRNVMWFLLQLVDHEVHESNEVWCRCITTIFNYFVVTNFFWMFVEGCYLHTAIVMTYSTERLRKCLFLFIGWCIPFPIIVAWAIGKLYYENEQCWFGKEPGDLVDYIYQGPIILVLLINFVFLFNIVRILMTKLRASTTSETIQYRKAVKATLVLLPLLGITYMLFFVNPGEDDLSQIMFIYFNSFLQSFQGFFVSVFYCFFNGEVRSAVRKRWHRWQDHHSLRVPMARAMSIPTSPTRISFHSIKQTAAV
# T4 sequence (P24387 whole entry): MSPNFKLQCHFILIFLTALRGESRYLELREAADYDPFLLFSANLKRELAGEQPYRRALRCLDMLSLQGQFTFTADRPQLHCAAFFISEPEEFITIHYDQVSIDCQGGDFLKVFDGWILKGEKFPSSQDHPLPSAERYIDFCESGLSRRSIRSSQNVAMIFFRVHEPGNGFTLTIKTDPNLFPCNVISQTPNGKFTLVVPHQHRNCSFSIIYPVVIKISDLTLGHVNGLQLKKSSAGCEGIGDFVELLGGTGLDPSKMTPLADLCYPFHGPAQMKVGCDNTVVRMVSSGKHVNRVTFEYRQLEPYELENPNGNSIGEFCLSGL
# [12] = biological target: T4, Corticotropin-releasing factor receptor 2/Corticotropin-releasing factor-binding protein; assay: activators of CRF receptor 2 with binding protein – uHTS hits, confirmation (AID 602473); type: functional; details: read-out: EC50_Mean
# [13] = CRF-BP/CRF-R2 complex antagonists, dose response, cell-based, uHTS hits, 384-well (AID 651639); type: functional, Homo sapiens; details: read-out: IC50_Mean
# [14] = growth suppression of beta-catenin-knockout colon cells, dose response, cell-based, HCT116, human colon tumor (AID 1045); type: functional;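 note: HCT116 colon tumor cells with beta catenin knocked out; cells exposed to compound for 60 hours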
# [15] = biological target: T5, Rac GTPase-activating protein 1 (Homo sapiens, UniProt Q9H0H5); assay: MgcRacGAP GTPase-activating activity inhibitors, confirmation, biochemical, ADP Hunter fluorescence, primary and confirmatory (AID 624330); type: functional
# T5 sequence (Q9H0H5 whole entry): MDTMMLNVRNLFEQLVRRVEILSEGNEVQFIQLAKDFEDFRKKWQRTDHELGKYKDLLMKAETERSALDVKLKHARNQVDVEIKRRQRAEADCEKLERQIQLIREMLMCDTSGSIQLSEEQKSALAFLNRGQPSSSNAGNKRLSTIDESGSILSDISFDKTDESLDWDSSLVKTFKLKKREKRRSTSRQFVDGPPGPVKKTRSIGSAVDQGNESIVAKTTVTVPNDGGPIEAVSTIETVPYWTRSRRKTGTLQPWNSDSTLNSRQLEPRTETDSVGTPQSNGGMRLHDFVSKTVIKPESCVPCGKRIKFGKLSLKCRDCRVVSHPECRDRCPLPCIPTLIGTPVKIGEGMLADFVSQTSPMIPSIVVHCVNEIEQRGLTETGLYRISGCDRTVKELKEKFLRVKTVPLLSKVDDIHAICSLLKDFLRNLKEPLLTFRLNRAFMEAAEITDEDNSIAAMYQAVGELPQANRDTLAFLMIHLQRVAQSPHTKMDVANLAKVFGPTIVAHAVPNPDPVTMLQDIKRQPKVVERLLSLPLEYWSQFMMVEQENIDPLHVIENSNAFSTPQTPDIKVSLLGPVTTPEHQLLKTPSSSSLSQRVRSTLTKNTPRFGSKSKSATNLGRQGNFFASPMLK
# T2 sequence (P49327 whole entry, the tested form may be a part): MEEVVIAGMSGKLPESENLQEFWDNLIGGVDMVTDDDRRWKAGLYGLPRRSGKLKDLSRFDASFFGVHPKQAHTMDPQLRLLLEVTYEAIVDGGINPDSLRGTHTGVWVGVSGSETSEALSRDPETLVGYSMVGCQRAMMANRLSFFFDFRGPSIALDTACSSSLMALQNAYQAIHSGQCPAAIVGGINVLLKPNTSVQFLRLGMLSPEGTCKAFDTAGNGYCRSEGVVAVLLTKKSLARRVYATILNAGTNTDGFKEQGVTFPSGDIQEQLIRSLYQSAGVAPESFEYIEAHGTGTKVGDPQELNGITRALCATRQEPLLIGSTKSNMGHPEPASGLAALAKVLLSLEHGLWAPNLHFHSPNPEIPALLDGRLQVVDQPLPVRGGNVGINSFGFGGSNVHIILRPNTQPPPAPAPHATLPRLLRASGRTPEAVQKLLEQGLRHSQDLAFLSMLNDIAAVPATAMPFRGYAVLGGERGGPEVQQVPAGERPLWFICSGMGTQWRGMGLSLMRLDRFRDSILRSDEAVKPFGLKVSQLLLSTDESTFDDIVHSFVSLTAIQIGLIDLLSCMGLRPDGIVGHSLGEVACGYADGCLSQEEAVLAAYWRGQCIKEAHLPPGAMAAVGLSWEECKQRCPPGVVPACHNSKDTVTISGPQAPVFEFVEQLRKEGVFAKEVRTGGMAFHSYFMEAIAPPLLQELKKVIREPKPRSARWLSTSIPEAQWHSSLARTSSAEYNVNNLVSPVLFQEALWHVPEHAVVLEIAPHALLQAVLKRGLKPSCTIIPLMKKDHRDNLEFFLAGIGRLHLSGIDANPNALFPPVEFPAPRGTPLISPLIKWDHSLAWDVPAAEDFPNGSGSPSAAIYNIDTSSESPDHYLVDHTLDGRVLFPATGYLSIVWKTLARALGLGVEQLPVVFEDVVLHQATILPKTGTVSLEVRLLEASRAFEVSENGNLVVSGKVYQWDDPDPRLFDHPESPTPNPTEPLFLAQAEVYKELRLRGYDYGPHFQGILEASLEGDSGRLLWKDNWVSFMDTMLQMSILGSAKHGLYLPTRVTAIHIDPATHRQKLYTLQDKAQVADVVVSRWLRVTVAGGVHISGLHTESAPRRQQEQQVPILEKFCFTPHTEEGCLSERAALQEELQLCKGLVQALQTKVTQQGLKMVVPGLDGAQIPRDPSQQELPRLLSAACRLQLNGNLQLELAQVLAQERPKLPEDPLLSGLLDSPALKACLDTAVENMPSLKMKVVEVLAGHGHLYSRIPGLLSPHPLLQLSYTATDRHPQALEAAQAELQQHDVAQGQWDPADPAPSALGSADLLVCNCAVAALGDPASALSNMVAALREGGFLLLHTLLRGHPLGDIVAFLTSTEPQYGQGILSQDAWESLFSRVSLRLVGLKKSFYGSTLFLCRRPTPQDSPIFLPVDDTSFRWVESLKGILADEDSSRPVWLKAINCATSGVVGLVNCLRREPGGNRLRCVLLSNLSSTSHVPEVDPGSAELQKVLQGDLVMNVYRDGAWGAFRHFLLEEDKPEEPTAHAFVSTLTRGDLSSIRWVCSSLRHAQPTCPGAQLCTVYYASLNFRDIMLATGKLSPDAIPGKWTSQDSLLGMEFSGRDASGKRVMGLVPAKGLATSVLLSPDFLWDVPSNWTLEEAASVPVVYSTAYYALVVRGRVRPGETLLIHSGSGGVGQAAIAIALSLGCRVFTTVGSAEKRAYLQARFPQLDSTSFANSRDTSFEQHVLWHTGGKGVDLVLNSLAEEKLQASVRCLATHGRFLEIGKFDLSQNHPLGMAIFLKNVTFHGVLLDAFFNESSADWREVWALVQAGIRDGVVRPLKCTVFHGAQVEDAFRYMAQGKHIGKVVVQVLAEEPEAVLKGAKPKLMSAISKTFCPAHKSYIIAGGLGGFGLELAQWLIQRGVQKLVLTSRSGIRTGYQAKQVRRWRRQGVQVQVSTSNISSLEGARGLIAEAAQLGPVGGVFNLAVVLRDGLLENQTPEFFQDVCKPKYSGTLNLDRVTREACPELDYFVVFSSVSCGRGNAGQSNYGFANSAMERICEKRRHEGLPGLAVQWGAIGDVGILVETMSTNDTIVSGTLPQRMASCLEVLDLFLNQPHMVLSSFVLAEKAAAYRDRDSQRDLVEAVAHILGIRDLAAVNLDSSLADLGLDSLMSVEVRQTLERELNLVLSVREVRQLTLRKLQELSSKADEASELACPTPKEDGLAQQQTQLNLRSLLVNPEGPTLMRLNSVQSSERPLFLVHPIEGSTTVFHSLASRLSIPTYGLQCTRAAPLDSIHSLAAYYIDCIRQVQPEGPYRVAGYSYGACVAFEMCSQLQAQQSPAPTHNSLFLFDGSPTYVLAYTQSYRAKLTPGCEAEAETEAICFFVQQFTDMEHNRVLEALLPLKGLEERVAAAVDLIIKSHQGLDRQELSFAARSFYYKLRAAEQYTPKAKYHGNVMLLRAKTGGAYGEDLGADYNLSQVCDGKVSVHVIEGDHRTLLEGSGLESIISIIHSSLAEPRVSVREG
# Sequence of Induced myeloid leukemia cell differentiation protein Mcl-1 (Q07820 whole entry): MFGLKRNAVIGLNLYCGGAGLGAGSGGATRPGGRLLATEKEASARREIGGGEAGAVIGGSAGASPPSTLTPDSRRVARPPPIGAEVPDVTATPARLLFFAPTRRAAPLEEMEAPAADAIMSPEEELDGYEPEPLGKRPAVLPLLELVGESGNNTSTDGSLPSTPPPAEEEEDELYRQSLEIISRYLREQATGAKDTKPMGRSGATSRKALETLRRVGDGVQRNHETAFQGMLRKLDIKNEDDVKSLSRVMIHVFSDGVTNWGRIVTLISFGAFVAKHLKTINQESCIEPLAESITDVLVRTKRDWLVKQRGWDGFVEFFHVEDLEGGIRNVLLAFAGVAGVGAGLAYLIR
# T1 sequence (P11940 whole entry): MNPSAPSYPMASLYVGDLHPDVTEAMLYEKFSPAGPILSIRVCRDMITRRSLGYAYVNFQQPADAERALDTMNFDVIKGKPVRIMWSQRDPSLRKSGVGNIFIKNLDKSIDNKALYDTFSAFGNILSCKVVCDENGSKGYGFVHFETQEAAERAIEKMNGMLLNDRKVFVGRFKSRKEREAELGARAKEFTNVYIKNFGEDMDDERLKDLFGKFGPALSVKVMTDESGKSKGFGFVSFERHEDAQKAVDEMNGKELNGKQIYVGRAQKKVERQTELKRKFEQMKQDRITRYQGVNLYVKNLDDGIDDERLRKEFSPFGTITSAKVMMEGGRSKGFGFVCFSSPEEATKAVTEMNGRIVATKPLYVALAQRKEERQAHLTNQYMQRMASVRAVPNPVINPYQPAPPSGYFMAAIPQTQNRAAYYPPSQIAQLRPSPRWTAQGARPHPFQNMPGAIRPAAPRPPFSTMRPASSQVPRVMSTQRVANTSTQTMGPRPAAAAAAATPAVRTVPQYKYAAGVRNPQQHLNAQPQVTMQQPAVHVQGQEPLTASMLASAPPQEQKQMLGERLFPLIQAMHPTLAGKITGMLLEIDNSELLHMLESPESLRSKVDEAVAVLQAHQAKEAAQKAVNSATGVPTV
structure (smiles),measurement,setting,value
COCC(C)n1c(SCC(=O)Nc2nccs2)nc2ccccc2c1=O (stereo unspecified),IC50,[1],> 66 µM (inactive)
same,IC50,[2],> 66 µM (inactive)
COC(=O)c1ccc(Oc2nc(C(N)=O)cc(-c3ccccc3)n2)cc1,EC50,[3],29.9 µM (active)
CCOc1ccccc1C(=O)N1CCN=C1SCc1cccnc1,IC50,[1],> 66 µM (inactive)
same,IC50,[2],> 66 µM (inactive)
O=C(OCc1cccc(C(F)(F)F)c1)c1cc([N+](=O)[O-])ccc1N1CCOCC1,IC50,Fatty acid synthase [4],7.84 µM (active)
same,IC50,Fatty acid synthase [5],7.24 µM (active)
Cc1ccc(S(=O)(=O)N(C)C[C@H]2Oc3cc(Br)ccc3S(=O)(=O)N([C@H](C)CO)C[C@H]2C)cc1,AC50,[6],33.6 µM (active)
O=C(N/C(=C/C=C/c1ccccc1)C(=O)N1CCCCC1)c1ccc([N+](=O)[O-])cc1,IC50,Fatty acid synthase [4],0.295 µM (active)
same,IC50,Fatty acid synthase [5],0.258 µM (active)
CC(C)OCCCNC(=O)c1sc(=S)n(C)c1N,IC50,[1],> 66 µM (inactive)
same,IC50,[2],> 66 µM (inactive)
c1ccc2sc(SCc3ccc(-c4nnco4)cc3)nc2c1,CC50,[7],> 40 µM (active)
same,IC50,cells,27.4 µM (active)
same,IC50,Protein skinhead-1,32.7 µM (active)
CC1CCCCC1NC(=O)CN1C(=O)c2cccc(N)c2C1=O (stereo unspecified),IC50,[1],> 66 µM (inactive)
same,IC50,[2],35.5 µM (inactive)
O=C(NCc1ccccc1)[C@@H]1CCCN1C(=O)[C@@H]1CCCN1C(=O)c1cccc2ccccc12,AC50,[8],54.2 µM (active)
same,AC50,[9],36 µM (active)
COc1ccc(-c2nn(CCC(=O)O)cc2/C=C2\SC(N)=NC2=O)cc1OC,IC50,[10],4.63 µM (active)
COc1ccc2c(c1)C(=O)N1[C@H]3c4cc(Cl)ccc4OC[C@@H]3[C@H](c3ccccc3)[C@]1(C)C(=O)N2,IC50,Fatty acid synthase [4],16.5 µM (active)
same,IC50,Fatty acid synthase [5],18.8 µM (active)
C[C@@H]1CN([C@H](C)CO)C(=O)c2cc(NC(=O)Nc3ccc(F)cc3)ccc2O[C@@H](C)CCCCO[C@H]1CN(C)S(=O)(=O)c1cccs1,IC50,Fatty acid synthase [4],5.17 µM (active)
same,IC50,Fatty acid synthase [5],3.69 µM (active)
COc1ccc(NC(=O)CCCCC(=O)Nc2ccc(OC)cc2OC)c(OC)c1,IC50,[11],< 0.368 µM (active)
same,EC50,[12],> 53 µM (inactive)
same,IC50,[13],> 20 µM (inactive)
CN(C(=S)NC(=O)c1ccccc1)c1c(N)n(Cc2ccccc2)c(=O)[nH]c1=O,IC50,[1],> 66 µM (inactive)
same,IC50,[2],> 66 µM (inactive)
C=CCC[C@@H](Cc1ccc(F)cc1)C(=O)OC[C@H](Cc1c[nH]c2ccccc12)NC(=O)[C@H](CC=C)CC(=O)NCCO,IC50,Fatty acid synthase [4],10.9 µM (active)
same,IC50,Fatty acid synthase [5],6.03 µM (active)
CC1CCc2nc(NC(=O)CN3CCN(c4ccc(F)cc4)CC3)sc2C1 (stereo unspecified),IC50,Fatty acid synthase [4],2.04 µM (active)
same,IC50,Fatty acid synthase [5],1.81 µM (active)
CCOC(=O)C(CCCCOc1ccc([N+](=O)[O-])cc1)C(=O)OCC,IC50,[11],25.9 µM (active)
same,EC50,[12],> 53 µM (inactive)
same,IC50,[13],> 20 µM (inactive)
CN1CCC(N(C)c2nc(-c3ccc([N+](=O)[O-])cc3)nc3ccccc23)CC1,EC50,[3],5.17 µM (active)
same,EC50,[14],4.29 µM (active)
same,IC50,[10],3.99 µM (active)
COC(=O)C1=CN(Cc2ccc(OC)cc2)C=C(C(=O)OC)C1c1cccs1,IC50,[11],4.21 µM (active)
same,EC50,[12],> 53 µM (inactive)
same,IC50,[13],> 20 µM (inactive)
COC(=O)[C@@]1(C)[C@H]2C(=O)N(Cc3ccccc3)C(=O)[C@H]2[C@H]2CN=C(SCC(=O)c3ccccc3)N21,IC50,[1],> 66 µM (inactive)
same,IC50,[2],> 66 µM (inactive)
Cc1ccc(NC(=O)c2cc([N+](=O)[O-])ccc2N2CCOCC2)cc1C,IC50,Fatty acid synthase [4],4.24 µM (active)
same,IC50,Fatty acid synthase [5],2.81 µM (active)
COc1ccc(C(C(=O)NC2CCCCC2)N(CC2CCCO2)C(=O)C2COc3ccccc3O2)cc1OC (stereo unspecified),EC50,[3],12.7 µM (active)
same,EC50,[14],19.5 µM (active)
CCc1nc(Nc2ccc(N3CCN(C(C)=O)CC3)cc2)c2oc3ccccc3c2n1,IC50,[10],5.67 µM (not active)
same,IC50,[15],36.8 µM (active)
CSc1ccccc1NC(=O)Nc1ccc(Cl)cc1,EC50,[3],68.5 µM (active)
same,EC50,[14],46.5 µM (active)
COc1ccccc1C(=O)/C=C/c1ccc(N2CCCCC2)c([N+](=O)[O-])c1,EC50,[3],5.52 µM (active)
same,EC50,[14],4.48 µM (active)
Nc1ccc2nc3c(c(Cl)c2c1)CCCC3,CC50,[7],2.79 µM (active)
same,IC50,cells,13.7 µM (active)
